This is an account of results in patent US20230102223A1, “PHARMACEUTICAL COMPOSITIONS WITH ANTIFLAVIVIRAL ACTIVITY” (HEALTH RESEARCH, INC., priority 2016, published 2023).

For data set [1], the target named is NS2B-NS3 interactions (Nluc-E66stop/GCN) (Dengue virus type 2, UniProt P29990). As to the kind of experiment: biochemical. It counts as binding, DENV2.
Data set [2] addresses DENV2 His-NS2B/His-MBP-NS3 protease (Dengue virus type 2, UniProt P29990). Briefly: NS2B/NS3 protease inhibition assay. In kind it is biochemical.
The test system of data set [3] is DENV2. Particulars: DENV2; Table 1.
The subject of data set [4] is DENV2. Briefly: microbe, parasite or virus in culture. The following applies: Dengue virus.
Data set [5] is described as follows: Cytotoxicity, MTT or WST-8 cell proliferation assay. The following applies: human, A549 cells. On the technique in general: Tetrazolium dyes change colour on reduction, which living cells bring about.
The test system of data set [6] is ZIKV (Puerto Rico strain PRVABC59). As to the kind of experiment: Viral titer reduction assay in A549 cells, ZIKV. The following applies: for EC50 / EC90: Zika virus, A549. In kind it is cell-based, Zika virus.
A further data set has as its system WNV. Briefly: microbe, parasite or virus in culture. It counts as cell-based, West Nile virus. The following applies: West Nile virus, A549.
Another data set relates to JEV. Briefly: microbe, parasite or virus in culture. It counts as cell-based, Japanese encephalitis virus. Particulars: Japanese encephalitis virus, A549; JEV.
For another data set, the system named is YFV. Briefly: microbe, parasite or virus in culture. It counts as cell-based, yellow fever virus. The following applies: Yellow fever virus, A549.
The subject of another data set is ZIKV. As to the kind of experiment: Time-of-addition experiment in infected A549 cells. The following applies: temoporfin 90 nM, niclosamide 0.75 μM; viral plaque reduction assay. It counts as cell-based, Zika virus. On the technique in general: Plaque reduction counts the foci of infection that form in a cell layer.
Data set [7] deals with refolded His-NS3 protease domain (Dengue virus type 2, UniProt P29990). As to the kind of experiment: Surface plasmon resonance (SPR). In kind it is binding. (SPR reads the build-up and loss of mass on a sensor chip optically.)
The next data set has as its target DENV2 His-MBP-NS3 (Dengue virus type 2, UniProt P29990). Briefly: Protein thermal shift assay (PTSA). Particulars: compound 4.8 μM, protein 2.5 μM. It counts as binding. The method, then: PTSA was conducted using an Applied Biosystem 7500 Fast Real-Time PCR System (ThermoFisher Scientific) from 25 to 80° C. The DENV2 His-MBP-NS3 (final concentration of 2.5 μM in 1× PBS) was mixed with each compound to attain a 4.8 μM final concentration in 1.6% DMSO in the MicroAmp® Fast Optical 96-Well Reaction Plate (ThermoFisher Scientific). Thermal denaturation was monitored using SYPRO Orange (Life Technologies) according to manufacturer's manual. The denaturation of the proteins was monitored by following the increase of the fluorescence emitted by the probe that binds exposed hydrophobic regions of the denatured protein. The melting temperature (Tm) was calculated as the mid-log of the transition phase from the native to the denatured protein, using a Derivative model using the Protein Thermal Shift™ Software v1.0 (ThermoFisher Scientific). The reference unfolding temperature of proteins in 1.6% DMSO (Tm-DMSO) was subtracted from the values in the presence of each compounds (Tm-comp) to obtain thermal shifts, ΔTm=Tm-comp−Tm-DMSO. Compounds were considered to be binders when ΔTm>0.5° C.

Data set [8] has as its target ZIKV GST-NS3 protease domain / FLAG-tagged ZIKV NS2B (Zika virus, UniProt Q32ZE1). As to the kind of experiment: Competitive GST pull-down assay. It counts as binding. Particulars: pre-incubation with GST-NS3 beads; dose-dependent. The method, then:
GST-NS3 or the GST-tag (10 μg) was immobilized on Glutathione sepharose-4B affinity beads (GE HealthCare). FLAG-tagged NS2B (10 μg) was incubated with the beads for 2 hours, and subjected to WB, using anti-FLAG (Genscript) and anti-GST antibodies (GE Healthcare). […] The assay was performed the same as in FIG. 32A, except that 2-fold dilution series of drugs were incubated with the GST-NS3 beads overnight prior to incubation with the FLAG-NS2B. […] The binding of NS2B to NS3 in the absence of each drag (DMSO control) was set as 100%. The relative binding of NS2B to NS3 in the presence of each drug was normalized to the DMSO control.

A further data set has as its system ZIKV NS3 expression. As to the kind of experiment: Western blot of viral protein expression. Particulars: 48 hrs; dose-dependent. In kind it is cell-based. The method, then:
The ability of compounds to inhibit viral protein expression was also tested by WB, using GTX133309 ZIKV α-NS3 antibody (GeneTex, Inc.).
Lower panel, NS3 expression normalized to the GAPDH loading control.

Another data set deals with A549 cells. Briefly: Cytotoxicity, MTT or WST-8 cell proliferation assay. Particulars: Table 3.
Setting [9] is: Table 1, read-out: NS2B-MBP NS3 protease IC50.
[10] abbreviates: DENV2, A549, read-out: EC50 (DENV2).
Setting [11] is: NS2B-NS3 SLC signal, read-out: SLC IC50.

Counter-ions that a name gives are not always drawn. Like-named read-outs stand apart in the source and are kept apart here.

Sequence of DENV2 His-NS2B/His-MBP-NS3 protease (P29990 1476-1660 limits assumed): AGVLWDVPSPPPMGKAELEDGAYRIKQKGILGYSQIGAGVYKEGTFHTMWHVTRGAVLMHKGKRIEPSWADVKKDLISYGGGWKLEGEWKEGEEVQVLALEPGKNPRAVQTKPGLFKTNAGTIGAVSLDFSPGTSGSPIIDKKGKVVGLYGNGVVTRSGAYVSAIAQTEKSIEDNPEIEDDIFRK
Sequence of NS2B-NS3 interactions (Nluc-E66stop/GCN) (P29990 1476-1660 limits assumed): as above
Sequence of refolded His-NS3 protease domain (P29990 1476-1653 limits assumed): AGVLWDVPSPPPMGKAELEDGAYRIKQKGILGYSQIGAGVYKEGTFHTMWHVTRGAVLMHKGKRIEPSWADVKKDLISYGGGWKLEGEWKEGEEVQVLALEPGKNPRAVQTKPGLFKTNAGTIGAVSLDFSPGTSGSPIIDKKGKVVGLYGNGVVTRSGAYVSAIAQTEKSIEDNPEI
Sequence of ZIKV GST-NS3 protease domain / FLAG-tagged ZIKV NS2B (Q32ZE1 1499-1676): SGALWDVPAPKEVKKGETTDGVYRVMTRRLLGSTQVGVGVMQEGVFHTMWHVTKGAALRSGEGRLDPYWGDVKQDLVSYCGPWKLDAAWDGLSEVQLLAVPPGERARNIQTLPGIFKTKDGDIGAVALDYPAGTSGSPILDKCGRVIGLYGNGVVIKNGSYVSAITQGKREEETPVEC
Sequence of DENV2 His-MBP-NS3 (P29990 1476-1660 limits assumed): as the sequence (P29990 1476-1660 limits assumed) above

In the case of `Cc1ccc(O)c(-n2nc3ccccc3n2)c1` [2-(2H-Benzotriazol-2-yl)-4 methylphenol], in data set [1], the IC50 (as a rule, the concentration that gives 50% inhibition) came to 7.8 µM.

`Nc1ccc(N=Nc2ccccc2)cc1` [4-Aminoazobenzene] displayed an IC50 in [1] of 12.6 µM.

For `O=C(O)c1cccc(-c2noc(-c3ccccc3F)n2)c1` [Ataluren], the IC50 in data set [1] was found to be 0.1 µM; in data set [2] (setting [9]), 21.6 µM. Moreover, the “Therapeutic index (TI) (CC50/EC50)” value in the data set with DENV2 [3] is >50. The EC50 (in general, the concentration giving half of the maximal effect) with DENV2 [4] (setting [10]) is < 2 µM. In addition, in data set [5] (CC50, A549 cells, Table 1), the CC50 (usually the concentration that lowers cell viability or growth by half) at 42 h was > 100 µM.

Turning to `CNC(=O)c1ccccc1Sc1ccc2c(/C=C/c3ccccn3)n[nH]c2c1` [Axitinib], inhibition in data set [1] was half-maximal at 5.3 µM (IC50).

With `c1ccc(CCNc2nc(-c3ccccc3)cs2)cc1` [Fanetizole], the IC50 in data set [1] amounted to 12.4 µM.

In turn, `COc1ccc2nc(NC(=O)Nc3ccccc3)sc2c1` [Frentizole] gave an IC50 in [1] of 0.38 µM.

On to `O=c1c(-c2ccc(O)cc2)coc2cc(O)cc(O)c12` [Genistein], for which the IC50 in data set [1] was 7.2 µM.

`CC(C)Oc1ccc2c(=O)c(-c3ccccc3)coc2c1` [Ipriflavone]: the IC50 in [1] amounted to 5.3 µM.

On to `CCN(CC)c1ccc(C(=C2C=CC(=[N+](CC)CC)C=C2)c2cc(S(=O)(=O)O)ccc2S(=O)(=O)[O-])cc1` [Isosulfan blue], for which the IC50 in data set [1] (setting [11]) was 12.2 µM.

In the case of `CN(C)c1ccc2nc3ccc(=[N+](C)C)cc-3sc2c1` [Methylene blue, [7-(dimethylamino)phenothiazin-3-ylidene]-dimethylazanium;chloride], the half-inhibitory concentration (IC50) in data set [1] worked out at 5.5 µM; in data set [2] (setting [9]) it was 41.6 µM; in [2] (Table 3, read-out: IC50-pro) it was 40 µM. For the same compound, the EC50 in data set [6] (ZIKV*, without ambient light (in dark)) is 0.28 µM; in the data set with WNV, 0.1 µM; in the data set with DENV2 [4] (setting [10]), < 2 µM. Further, the “titer of ZIKV in the absence of light exposure” value in data set [6] (in dark) is recorded as “significantly reduced the titer”.

Consider `O=C(Nc1ccc([N+](=O)[O-])cc1Cl)c1cc(Cl)ccc1O` [Niclosamide, 5-chloro-N-(2-chloro-4-nitrophenyl)-2-hydroxybenzamide], for which the IC50 in [1] was determined as 0.7 µM; in data set [2] (setting [9]), 12.3 µM; in data set [2] (Table 3, read-out: IC50-pro), 12.3 ± 0.6 µM. Further, the EC50 in [6] (ZIKV) stood at 0.48 ± 0.06 µM; with WNV (WNV, read-out: EC50), 0.54 ± 0.17 µM; with JEV, 1.02 ± 0.08 µM; with YFV it was 0.84 ± 0.02 µM; with DENV2 [4] (DENV2, A549) it was 0.55 ± 0.05 µM; with DENV2 [4] (setting [10]) it was 0.55 µM. For the same compound, the EC90 – broadly, the concentration needed for an effect of 90% – in data set [6] (ZIKV) was 1.9 µM; with WNV (WNV), 2.3 µM; with JEV it was 2.4 µM; in the data set on YFV, 1.9 µM; in the data set with DENV2 [4] (DENV2, A549), 2.3 µM. The “effectiveness of addition at 24-hour post-infection versus at the time of infection” value in the data set on ZIKV is on record as “almost equally effective”. Also, the Kd (as a rule, the free concentration of one partner at which half of the binding sites on the other are occupied at equilibrium, for simple one-to-one binding) in data set [7] was 6.4 µM. Also, at DENV2 His-MBP-NS3, the “Tm compared to the DMSO control” value is “increased Tm”. In data set [8], the “binding of FLAG-NS2B to GST-NS3” value is given as “significantly decreased the binding”. Besides, the “expression of ZIKV NS3 (western blot)” value with ZIKV NS3 expression was “significantly inhibited”. The “Therapeutic index (TI) (CC50/EC50)” value in the data set on DENV2 [3] is >182.

`CC(=O)Oc1ccccc1C(=O)Nc1ncc([N+](=O)[O-])s1` [Nitazoxanide, [2-[(5-nitro-1,3-thiazol-2-yl)carbamoyl]phenyl]acetate]: the IC50 in data set [1] is 3.4 µM; in data set [2] (setting [9]), 15.9 µM; in [2] (Table 3, read-out: IC50-pro), 15.9 ± 0.9 µM. Further, the EC50 was 1.48 ± 0.18 µM in [6] (ZIKV), 0.39 µM with JEV and < 10 µM in the data set on DENV2 [4] (setting [10]). This compound showed an EC90 in data set [6] (ZIKV) of 4 µM. In addition, in [7] (25° C., 1:1 Langmuir binding model, read-out: dissociation constant (KD)), the Kd came to 7.3 µM. Besides, the “Therapeutic index (TI) (CC50/EC50)” value with DENV2 [3] was >0. Moreover, the CC50 at 42 h in data set [5] (CC50, A549 cells, Table 1) is > 100 µM; in data set [5] (CC50, Table 3), 77 ± 7.2 µM. The compound also displayed a CC50 in the data set with A549 cells of 60 µM.

Turning to `CC(C)CCOC(=O)c1ccc(N(C)C)cc1` [Padimate], the IC50 in data set [1] (setting [11]) was 14.4 µM.

The compound `Nc1ccc(/N=N/c2ccccc2)c(N)n1` [Phenazopyridine hydrochloride] gave an IC50 in data set [1] of 13.2 µM.

As for `Clc1ccccc1-c1nc(-c2ccncc2)no1` [Pifexole], in [1], the IC50 came to 7.5 µM.

In data set [1], `Oc1ccc(C=Cc2cc(O)cc(O)c2)cc1` [Resveratrol] gave a 50% inhibitory concentration (IC50) of 9 µM.

As to `O=C(Nc1ncc([N+](=O)[O-])s1)c1cccs1` [Tenonitrozole], the IC50 in data set [1] worked out at 4.9 µM.

Take `Cc1cc2nc3ccc(N(C)C)cc3[s+]c2cc1N` [Toluidine blue]: the IC50 in [1] (setting [11]) came to 14.3 µM.

Turning to `CS(=O)(=O)c1ccc(-c2cn3ccccc3n2)cc1` [Zolimidine], in [1], the IC50 worked out at 12.1 µM.

As for Amlenasox, in [1] (setting [11]), the IC50 was determined as 4.7 µM.
